These are literature values, as cited in US8758737B2, “Evaporative cooling composition” (priority 2005, dated 2014).

For the data set the following is noted: stated as a property of the alcohol (evaporative cooling); temperature not given.

As for `CC(C)O` [isopropyl alcohol], the vapor pressure is given as 310 mmHg.

In the case of `CCO` [ethyl alcohol], the vapor pressure entry is on record as “about 41.0 mmHg”.
